These results are taken from US20180118786A1, “NOVEL lNHIBITORS OF THE ENZYME ACTIVATED FACTOR XII (FXIIA)” (ECOLE POLYTECHNIQUE FEDERALE DE LAUSANNE (EPFL), priority 2015, published 2018).

By half-life is commonly meant the time in which the quantity being followed falls by half. Usually IC50 stands for the point on the concentration scale where inhibition reaches its midpoint.

A value given as a limit tells only on which side of the number the result lay.

The nature of one data set: in vitro. Conditions: human, plasma.
In a further data set the target is T1, FXII (Homo sapiens, UniProt P00748).
T1 construct: from tissue; host or cells: pooled fresh frozen human plasma
T1 sequence (P00748 20-615): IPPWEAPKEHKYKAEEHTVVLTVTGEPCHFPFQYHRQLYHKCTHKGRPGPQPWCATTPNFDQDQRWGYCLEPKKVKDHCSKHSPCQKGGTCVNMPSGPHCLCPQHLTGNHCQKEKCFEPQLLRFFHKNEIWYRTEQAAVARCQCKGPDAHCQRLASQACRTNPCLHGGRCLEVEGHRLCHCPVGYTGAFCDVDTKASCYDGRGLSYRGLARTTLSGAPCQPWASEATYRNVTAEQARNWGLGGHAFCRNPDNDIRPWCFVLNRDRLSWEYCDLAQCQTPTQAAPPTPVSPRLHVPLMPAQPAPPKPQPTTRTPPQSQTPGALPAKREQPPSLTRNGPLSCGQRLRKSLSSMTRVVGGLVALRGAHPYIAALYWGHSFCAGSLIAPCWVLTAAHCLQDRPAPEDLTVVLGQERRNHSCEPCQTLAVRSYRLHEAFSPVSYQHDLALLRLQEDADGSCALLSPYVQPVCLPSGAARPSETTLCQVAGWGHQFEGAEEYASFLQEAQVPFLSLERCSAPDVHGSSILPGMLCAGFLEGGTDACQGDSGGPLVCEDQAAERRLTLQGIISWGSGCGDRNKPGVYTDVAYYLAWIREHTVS
Put plainly: FXII coagulant activity (FXII:c) in human plasma. The data set is classed as biochemical. Conditions: 50 μM. On the procedure:
(§1) aPTT, PT and FXII coagulant activity (FXII:c) measurements Coagulation times (aPTT, PT) and FXIIa activity were determined in human plasma using an automated blood coagulation analyzer (Sysmex CS-5100, Siemens, Eschborn, Germany) with according to the manufacturer's instructions (Siemens). Extrinsic coagulation was triggered with Innovin® (recombinant human tissue factor, synthetic phospholipids and calcium in stabilized HEPES buffer system; Dade Behring/Simens). Intrinsic coagulation was triggered with Pathromtin* SL (Siemens). Human plasma used in this study was derived from a pool of fresh frozen plasma units provided by the Service Regional Vaudois de Transfusion Sanguine, Switzerland.
(§2) Coagulation times (aPTT, PT) and FXIIa activity were determined, at least in duplicate, in human plasma using an automated blood coagulation analyzer (Sysmex CA-7000) with standard reagents according to the manufacturer's instructions (Siemens Healthcare, Eschborn, Germany). Human plasma used in this study was derived from a pool of fresh frozen plasma units provided by the Service Regional Vaudois de Transfusion Sanguine, Switzerland.

Data set [1] has as its system thrombin generation in platelet poor plasma. Put plainly: Thrombin generation assay by CAT, TF-triggered or without trigger. The data set is classed as biochemical, human. Conditions: 1 pM TF, 100 μg/mL inhibitor.
A further data set deals with extrinsic pathway. As to the kind of experiment: PT in human plasma (Example 1). Conditions: 40 μM. The data set is classed as biochemical. On the procedure:
as §1, §2

Another data set has as its target T2, FXII activity (Mus musculus, UniProt Q80YC5).
T2 construct: from tissue; host or cells: plasma of BALB/c mice after injection
T2 sequence (Q80YC5 20-597): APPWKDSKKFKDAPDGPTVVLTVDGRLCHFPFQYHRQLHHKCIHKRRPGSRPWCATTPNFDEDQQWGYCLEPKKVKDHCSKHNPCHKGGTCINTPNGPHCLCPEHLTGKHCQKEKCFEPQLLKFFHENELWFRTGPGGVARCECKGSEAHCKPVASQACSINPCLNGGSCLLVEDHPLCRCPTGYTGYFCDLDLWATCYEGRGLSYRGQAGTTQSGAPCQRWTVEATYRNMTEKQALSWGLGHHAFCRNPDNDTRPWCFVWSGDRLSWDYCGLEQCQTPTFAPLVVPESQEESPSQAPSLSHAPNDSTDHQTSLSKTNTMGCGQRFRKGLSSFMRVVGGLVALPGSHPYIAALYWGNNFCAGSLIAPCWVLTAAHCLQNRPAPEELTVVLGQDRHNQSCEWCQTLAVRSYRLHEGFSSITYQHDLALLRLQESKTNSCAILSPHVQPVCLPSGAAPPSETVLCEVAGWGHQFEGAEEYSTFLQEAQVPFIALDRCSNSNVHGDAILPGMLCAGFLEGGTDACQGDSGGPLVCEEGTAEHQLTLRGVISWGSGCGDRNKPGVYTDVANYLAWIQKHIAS
As to the kind of experiment: Inhibition of FXII activity in vivo. Also on record: species or system BALB/c mice. As to conditions: mice. The method, then:
Female BALB/c mice were anesthetized with 125 mg/kg pentobarbital. […] Five minutes later, blood was collected from the vena cava at a 1:9 blood to citrate ratio. Plasma was prepared by centrifugation at 2,400 g 10 minutes at RT. FXIIa activity was assessed as described above.

For data set [2], the system named is thrombin generation in platelet poor plasma. Put plainly: Thrombin generation assay by CAT, TF-triggered or without trigger. Format: biochemical, human. Also on record: lag time: unit not given here. On the procedure: (§3) Thrombin generation was performed as previously described with some modifications.30 In brief, 60 μL platelet poor plasma (PPP), 20 μL FXIIa inhibitor/HA buffer (Hepes 20 mM, NaCl 140 mM, pH 7.4, 5 mg/mL BSA), and 20 μL PPP reagent, PPP LOW reagent, MP reagent or Actin FS (1:170 diluted in HA buffer) were mixed in a 96-well microtiter plate (Immulon 2HB; Thermo Fisher Scientific) and incubated for 15 min at 37° C. Thrombin generation was triggered by the addition of 20 μL of substrate/calcium chloride buffer (FLUKA) at 37° C. Samples were tested in triplicate for each condition. Fluorogenic thrombin substrate hydrolysis was measured every 20 s for 120 min on a microplate fluorometer (Fluoroskan Ascent FL; Thermo Fisher Scientific) with a 390/460-nm (excitation/emission) filter set. Data analysis was performed on the Thrombinoscope software (Synapse By). PPP reagent (TF […], PL 4 μM), PPP LOW reagent (TF […], PL 4 μM), MP reagent (PL 4 μM), thrombin calibrator and FLUKA were purchased from Synapse By.
Venous blood was collected from healthy volunteers by antecubital venipuncture with 19-gauge needles in 3,2% (w/v) citrated Monovette plastic tubes. In order to minimize contact activation, the first collection tube containing EDTA was discarded according to standard procedures. […] Blood was then processed to PPP by an initial centrifugation step at 2,000 g for 5 min followed by a second centrifugation step at 10,000 g for 10 min. Plasma aliquots were stored at −80 until analysis.

In the next data set the target is T3, human β-FXIIa (Homo sapiens, UniProt P00748).
T3 construct: human β-FXIIa, a naturally occurring proteolytic product of FXIIa comprising only the catalytic domain; purchased Molecular Innovations HFXIIAB
Put plainly: Protease inhibition assay with fluorogenic substrate (Example 1). Format: biochemical.

Data set [3] has as its system intrinsic pathway (contact activation). As to the kind of experiment: Thrombin generation assay by CAT triggered by ellagic acid. Format: biochemical, human. As to conditions: ellagic acid trigger, 20 μg/mL. The method, then:
as §3

The test system of data set [4] is intrinsic pathway of coagulation. As to the kind of experiment: aPTT in human plasma (Example 1). Format: biochemical. On the procedure:
as §1, §2

For data set [5], the target named is T4, trypsin (Homo sapiens, UniProt P07477). Put plainly: Specificity FXII618 vs CTI, trypsin. Format: biochemical.
The test system of the next data set is FXIIa. Conditions: cited from earlier work.
Data set [6] concerns intrinsic coagulation pathway. As to the kind of experiment: aPTT in human plasma (Example 2). Format: biochemical. The method, then: Coagulation times (aPTT, PT) were determined in human plasma using a blood coagulation analyzer (STart. Hemostasis coagulation analyzer, Diagnostica Stago). Extrinsic coagulation was triggered with Innovin (recombinant human tissue factor, synthetic phospholipids and calcium in stabilized HEPES buffer system; Dade Behring; Siemens). Intrinsic coagulation was triggered with Pathromtin* SL (Siemens). Pooled normal human plasma used in this study was provided by Innovative research (USA).
The ability to selectively suppress the intrinsic coagulation pathway was assessed in in vitro coagulation assays. Activated partial thromboplastin time (aPTT) and prothrombin time (PT) measure the time to coagulation upon initiation of coagulation either via the intrinsic (aPTT) or the extrinsic pathway (PT). These tests have been performed in human plasma in the presence of different concentrations of FXIIa-inhibitors. Selective FXIIa inhibition is expected to increase aPTT but not PT. […] At a concentration of 5 μM peptide inhibitor no coagulation via the intrinsic pathway occurred within 120 s. Additionally, there was a correlation between inhibitory activity against FXIIa and extent of aPTT prolongation.

The subject of data set [7] is structurally related or functionally important proteases. As to the kind of experiment: Specificity testing (Example 2), other proteases. The data set is classed as biochemical, human. The method, then: (§4) For the specificity testing the following final concentrations of human serine proteases were used: tPA (Molecular Innovations) 7.5 nM, uPA (Molecular Innovations) 1.5 nM, factor XIa (Innovative Research, Novi, Mich., U.S.) 6 nM, PK (Innovative Research) 0.25 nM, thrombin (Molecular Innovations) 1 nM, plasmin (Molecular Innovations) 2.5 nM, trypsin (Molecular Innovations) 0.05 nM, factor VIIa (Haematologic Technologies Inc.) 50 nM and factor Xa (Haematologic Technologies Inc,) 6 nM.
(§5) Dilutions of peptides were prepared ranging from 0.04 to 40 μM.

For data set [8], the target named is T4, trypsin. Put plainly: Specificity testing (Example 2), trypsin. Format: biochemical. Also on record: purchased Molecular Innovations. The method, then:
as §4, §5

[9] abbreviates: absence of extrinsic- or intrinsic-specific trigger, 100 μg/mL inhibitor.

Description for human β-FXIIa: The inhibitory activity of bicyclic peptides was determined by incubation with proteases and quantification of their residual activity with a fluorogenic substrate. Final concentration of human b-FXIIa (HFXIIAB; Molecular Innovations) and mouse α-FXIIa (MFXIIA; Molecular Innovations) was 10 nM. Dilutions of peptides were prepared ranging from 0.2-200 mM. Fluorescence intensity was measured with an Infinite M200Pro fluorescence plate reader (excitation at 355 nm, emission at 460 nm; Tecan, Männedorf, Switzerland). The reactions were performed at RT. Sigmoidal curves were fitted to the data using the following dose response equation wherein x=peptide concentration, y=% activity of reaction without peptide, A1=100%, A2=0%, p=1. IC50 values were derived from the fitted curve.
The inhibitory constant Ki was calculated according to the equation of Cheng and Prusoff^29 Ki=/050/(1+([S]0/Km) wherein IC50 is the functional strength of the inhibitor, [S]0 is the total substrate concentration, and Km is the Michaelis-Menten constant.
Description for in vitro: Peptide (2 μl of 2 mM in H2O) was added to 398 μl human plasma (final peptide concentration was 10 μM in 400 μl final volume). The mixture was incubated in the water bath at 37° C. At 8 different time points (0 h, 30 min, 1 h, 2 h, 4 h, 8 h, 12 h, 24 h and in some cases 48 h) a sample of 30 μl was removed, diluted to 200 μl with the same buffer used for protease inhibition assay (see above) and heat-inactivated for 20 min at 65° C. During this step proteases present in plasma are being inactivated, that would otherwise interfere with the subsequently performed enzymatic assay. […] Before analysis, plasma samples were centrifuged for 5 min at 16′000 g and the supernatant was collected. A twofold dilution series ranging from 0.0005-0.5 μM was prepared. IC50 values were derived from the fitted curve using the equation indicated above. Residual inhibition in % was calculated using the following formula: IC50, 0h/IC50, xh*100 wherein IC50, 0h is the functional strength of the inhibitor at time point 0 and IC50, xh the functional strength of inhibitor after one of the different plasma incubation period mentioned above.
The activity of the plasma proteases was heat-inactivated by incubation of the samples at 65° C. for 10 minutes.

Take `CC(C)C[C@@H]1NC(=O)[C@H](CCC(N)=O)NC(=O)[C@H](CCCNC(=N)N)NC(=O)[C@@H]2CSCCC(=O)N3CN(CN(C3)C(=O)CCSC[C@H](NC(=O)[C@@H](N)CCCNC(=N)N)C(=O)N[C@@H](Cc3ccccc3)C(=O)N[C@@H](CCCNC(=N)N)C(=O)N[C@@H](CC(C)C)C(=O)N3CCC[C@H]3C(=O)N2)C(=O)CCSC[C@@H](C(=O)N[C@@H](CCCNC(=N)N)C(N)=O)NC(=O)[C@H](CCCNC(=N)N)NC1=O` [FXII618]: the half-life at 10 μM in “in vitro” is 3.9 ± 1.9 h. On FXII, the “FXII coagulant activity (FXII:c)” value is on record as less than 5%. Moreover, the “effect on thrombin generation” value in data set [1] is given as “no significant effect”. Further, the “effect on extrinsic pathway (PT)” value in the data set with extrinsic pathway is on record as “without affecting the extrinsic pathway”. Further, the PT at FXII activity (3.5 mg/kg FXII618 combined with 3.5 mg/kg PK128) is 7.1 ± 0.2 s. For the same compound, at FXII activity (3.5 mg/kg FXII618 combined with 3.5 mg/kg PK128 r.o., blood after five minutes), the FXII activity is 49.7+/−13.9%. This compound also showed a lag time in data set [2] (0.25 pM TF, 100 μg/mL inhibitor) of 12.3±0.3. Besides, in data set [2] (setting [9]), the lag time is listed as 55.8±3.7 and the peak is 60.3±0.8. Moreover, in data set [2] (high concentration of TF, 100 μg/mL inhibitor), the “effect on TF-induced thrombin generation” value is “did not affect TF-induced thrombin generation”. Moreover, in data set [2] (inhibitor added to whole blood immediately after sampling, no trigger), the thrombin activation entry is “completely block thrombin activation”. The “more potent than PCK” value on human β-FXIIa (compared to PCK) is on record as “around 8 fold”. For the same compound, on human β-FXIIa (compared to small molecule FXIIa inhibitor 44), the “more potent than inhibitor 44” value is greater than 200 fold. Besides, the “improvement in inhibiting human FXIIa” value on human β-FXIIa (in comparison to parent FXII516) came out at 8 fold. For the same compound, in data set [3], the “reduction of endogenous thrombin potential (ETP)” value is greater than 90% and the reduction of peak is given as greater than 90%. In data set [4] (citrated platelet poor plasma, 100 μg/mL inhibitor), this compound returned an aPTT greater than 170 s. In data set [4] (human plasma, 40 μM), this compound showed an aPTT greater than 170 s. Further, on trypsin [5] (at a concentration as high as 1000 nM), the inhibition of trypsin result is “no inhibition”. Besides, the “trypsin inhibition weaker compared to CTI” value at trypsin [5] (compared to CTI) is “around 100 fold”.

Take `N=C(N)NCCCC(NC(=O)C(Cc1ccccc1)NC(=O)C1CCCN1)C(=O)CCl` [PCK, D-Pro-Phe-Arg chloromethyl ketone, reference compound]: the IC50 with FXIIa was 180 nM.

For `CC(C)C[C@@H]1NC(=O)[C@H](CCC(N)=O)NC(=O)[C@H](CCCNC(=N)N)NC(=O)[C@@H]2CSCCC(=O)N3CN(CN(C3)C(=O)CCSC[C@H](NC(=O)[C@@H](N)CCCNC(=N)N)C(=O)N[C@@H](Cc3ccc(F)cc3)C(=O)N[C@@H](CCCNC(=N)N)C(=O)N[C@@H](CC(C)C)C(=O)N3CCC[C@H]3C(=O)N2)C(=O)CCSC[C@@H](C(=O)N[C@@H](CCCNC(=N)N)C(N)=O)NC(=O)[C@H](CCCNC(=N)N)NC1=O` [peptide 61], the “aPTT prolongation compared with peptide 1” value in data set [6] is given as “significantly increased aPTT prolongation”.

Turning to `CC(C)C[C@@H]1NC(=O)[C@H](CCC(N)=O)NC(=O)[C@H](CCCNC(=N)N)NC(=O)[C@@H]2CSCCC(=O)N3CN(CN(C3)C(=O)CCSC[C@H](NC(=O)[C@@H](N)CCNC(=N)N)C(=O)N[C@@H](Cc3ccc(F)cc3)C(=O)N[C@@H](CCCNC(=N)N)C(=O)N[C@@H](CC(C)C)C(=O)N3CCC[C@H]3C(=O)N2)C(=O)CCSC[C@@H](C(=O)N[C@@H](CCCNC(=N)N)C(N)=O)NC(=O)[C@H](CCCNC(=N)N)NC1=O` [peptide 73], the half-life at 10 μM in the data set “in vitro” is 15.5 ± 3.9 h. Besides, the “selectivity over other plasma proteases” value in data set [7] was ≥ 11,000 fold. Besides, the “inhibition of eight of the ten proteases” value in data set [7] (highest concentration tested (40 μM)) is listed as “less than 20%”. Moreover, in data set [6], the “aPTT prolongation compared with peptide 1” value was “significantly increased aPTT prolongation”. Further, the selectivity over trypsin on trypsin [8] came to 300 fold.
